Experimental data: PMC12221116, “Novel Quinazolinones Active against Multidrug‐Resistant Mycobacterium Tuberculosis: Synthesis, Antimicrobial Evaluation, and in Silico Exploration of Penicillin‐Binding Protein 1A as a Potential Target” (Chemmedchem, 2025)
Values after ≈ are worked out from the molar mass of the structure shown. Read-outs that look alike come from different tables or passages of the source.

Legend:
M. aurum = assay: Microdilution broth resazurin assay, MIC; format: cell-based, Mycolicibacterium aurum
M. avium = assay: Microdilution broth resazurin assay, MIC; format: cell-based, Mycobacterium avium
Mtb H37Rv = assay: Microplate Alamar Blue assay, MIC; format: cell-based, Mycobacterium tuberculosis; settings: for MIC: Mycobacterium tuberculosis, H37RV
M. kansasii = assay: Microplate Alamar Blue assay, MIC; format: cell-based, Mycobacterium kansasii; settings: for MIC: Mycobacterium kansasii, read-out: Antimycobacterial Activity MIC M. kans.
Mtb H37Ra = assay: Microdilution broth resazurin assay, MIC; format: cell-based, Mycobacterium tuberculosis
M. smegmatis = assay: Microdilution broth resazurin assay, MIC; format: cell-based, Mycolicibacterium smegmatis
[1] = Mycolicibacterium aurum, read-out: Antimycobacterial Activity MIC M. aurum
[2] = Mycobacterium avium, read-out: Antimycobacterial Activity MIC M. avium
[3] = Microplate Alamar Blue assay, read-out: Antimycobacterial Activity MIC Mtb H37Rv
[4] = Mycobacterium tuberculosis, H37RA; read-out: Antimycobacterial Activity MIC Mtb H37Ra
[5] = Mycolicibacterium smegmatis, read-out: Antimycobacterial Activity MIC M. smeg.
[6] = Mycobacterium avium; read-out: Antimycobacterial Activity MIC M. avium
[7] = Table S5 matching pairs series A and B
[8] = read-out: Antimycobacterial Activity MIC Mtb H37Rv, Table S5 matching pairs series A and B
[9] = Mycobacterium tuberculosis, H37RA, read-out: Antimycobacterial Activity MIC Mtb H37Ra
[10] = Mycolicibacterium aurum; read-out: Antimycobacterial Activity MIC M. aurum
[11] = Mycolicibacterium smegmatis; read-out: Antimycobacterial Activity MIC M. smeg.

How did the MIC (M. aurum; [1]) turn out when `COc1cc(/C=N/n2c(C)nc3cc(Cl)ccc3c2=O)ccc1O` [Compound 34] was run?
Its MIC is no less than 62.5 µg/mL.

And the MIC (M. avium; [2])?
Its MIC is no less than 62.5 µg/mL.

And the MIC (Mtb H37Rv; [3])?
The MIC was greater than 100 µg/mL.

And the MIC (M. kansasii)?
Its MIC is greater than 100 µg/mL.

What about the MIC (Mtb H37Ra; [4]) of the same compound?
The MIC was no less than 62.5 µg/mL.

What about the MIC (M. smegmatis; [5]) of the same compound?
Its MIC is no less than 62.5 µg/mL.

Which MIC (M. aurum; [1]) does the source give for `Cc1ccc(/C=N/n2c(C)nc3cc(Cl)ccc3c2=O)cc1` [Compound 48] here?
The MIC was no less than 31.2 µg/mL.

What about the MIC (M. avium; [2]) of the same compound?
The MIC was no less than 31.2 µg/mL.

What about the MIC (Mtb H37Rv; [3]) of the same compound?
The MIC was greater than 25 µg/mL.

And the MIC (M. kansasii)?
Its MIC is greater than 25 µg/mL.

What about the MIC (Mtb H37Ra; [4]) of the same compound?
The MIC was no less than 31.2 µg/mL.

And the MIC (M. smegmatis; [5])?
Its MIC is no less than 31.2 µg/mL.

For `Cc1nc2ccccc2c(=O)n1Cc1cccc(F)c1` [Compound 4], which “Antimycobacterial Activity MIC M. aurum” value (M. aurum) is on record?
The value was 500 µg/mL.

What about the “Antimycobacterial Activity MIC M. avium” value (M. avium) of the same compound?
The value was 125 µg/mL.

And the “Antimycobacterial Activity MIC Mtb H37Rv” value (Mtb H37Rv; Microplate Alamar Blue assay)?
Its value is 100 µg/mL.

And the “Antimycobacterial Activity MIC M. kans.” value (M. kansasii)?
The value was 50 µg/mL.

What about the “Antimycobacterial Activity MIC Mtb H37Ra” value (Mtb H37Ra) of the same compound?
The value was 250 µg/mL.

And the “Antimycobacterial Activity MIC M. smeg.” value (M. smegmatis)?
Its value is 250 µg/mL.

`Cc1nc2cc(Cl)ccc2c(=O)n1Cc1cccc(O)c1` [Compound 13] was tested. Which MIC (M. aurum; [1]) did it give?
The MIC was no less than 62.5 µg/mL.

What about the MIC (M. avium; [6]) of the same compound?
Its MIC is 62.5 µg/mL (≈ 208 µM).

What about the MIC (Mtb H37Rv; [3]) of the same compound?
Its MIC is 50 µg/mL (≈ 166 µM).

What about the MIC (M. kansasii) of the same compound?
The MIC was greater than 100 µg/mL.

And the MIC (Mtb H37Ra; [4])?
The MIC was no less than 62.5 µg/mL.

And the MIC (M. smegmatis; [5])?
Its MIC is no less than 62.5 µg/mL.

Which MIC (M. aurum; [1]) does the source give for `Cc1ccccc1/C=N/n1c(C)nc2cc(Cl)ccc2c1=O` [Compound 46] here?
Its MIC is no less than 62.5 µg/mL.

What about the MIC (M. avium; [2]) of the same compound?
The MIC was no less than 62.5 µg/mL.

What about the MIC (Mtb H37Rv; [3]) of the same compound?
The MIC was greater than 25 µg/mL.

What about the MIC (M. kansasii) of the same compound?
The MIC was greater than 25 µg/mL.

And the MIC (Mtb H37Ra; [4])?
Its MIC is no less than 62.5 µg/mL.

What about the MIC (M. smegmatis; [5]) of the same compound?
Its MIC is no less than 62.5 µg/mL.

What does the source list for `COc1cccc(Cn2c(C)nc3cc(Cl)ccc3c2=O)c1` [Compound 16]?
Antimycobacterial Activity MIC M. aurum (M. aurum): ≥125 µg/mL; MIC (M. aurum; [1]): ≥ 125 µg/mL; MIC (M. avium; [6]): ≥ 500 µg/mL; Antimycobacterial Activity MIC M. avium (M. avium; [7]): ≥ 500 µg/mL; MIC (Mtb H37Rv; [3]): > 100 µg/mL; MIC (Mtb H37Rv; [8]): > 100 µg/mL; MIC (M. kansasii): > 100 µg/mL; Antimycobacterial Activity MIC Mtb H37Ra (Mtb H37Ra): 62.5 µg/mL; MIC (Mtb H37Ra; [9]): 62.5 µg/mL (≈ 199 µM); Antimycobacterial Activity MIC M. smeg. (M. smegmatis): ≥125 µg/mL; MIC (M. smegmatis; [5]): ≥ 125 µg/mL

How did the MIC (M. aurum; [10]) turn out when `CC1Nc2ccccc2C(=O)N1Cc1ccc(Cl)c(Cl)c1` (centres unmarked) [Compound 11] was run?
Its MIC is no less than 250 µg/mL.

And the “Antimycobacterial Activity MIC M. aurum” value (M. aurum; [7])?
Its value is no less than 250 µg/mL.

And the MIC (M. avium; [6])?
Its MIC is no less than 250 µg/mL.

What about the “Antimycobacterial Activity MIC M. avium” value (M. avium; [7]) of the same compound?
The value was no less than 250 µg/mL.

And the MIC (Mtb H37Rv; [3])?
The MIC was greater than 100 µg/mL.

And the MIC (Mtb H37Rv; [8])?
The MIC was greater than 100 µg/mL.

What about the MIC (M. kansasii) of the same compound?
The MIC was greater than 100 µg/mL.

And the “Antimycobacterial Activity MIC Mtb H37Ra” value (Mtb H37Ra)?
The value was no less than 250 µg/mL.

What about the MIC (Mtb H37Ra; [9]) of the same compound?
The MIC was no less than 250 µg/mL.

What about the MIC (M. smegmatis; [11]) of the same compound?
The MIC was no less than 250 µg/mL.

And the “Antimycobacterial Activity MIC M. smeg.” value (M. smegmatis; [7])?
The value was no less than 250 µg/mL.

For `Cc1nc2cc(Cl)ccc2c(=O)n1/N=C/c1ccccc1Cl` [Compound 49], which MIC (M. aurum; [1]) is on record?
The MIC was no less than 31.2 µg/mL.

And the MIC (M. avium; [2])?
The MIC was no less than 31.2 µg/mL.

What about the MIC (Mtb H37Rv; [3]) of the same compound?
Its MIC is greater than 25 µg/mL.

And the MIC (M. kansasii)?
The MIC was greater than 25 µg/mL.

What about the MIC (Mtb H37Ra; [4]) of the same compound?
Its MIC is no less than 31.2 µg/mL.

What about the MIC (M. smegmatis; [5]) of the same compound?
Its MIC is no less than 31.2 µg/mL.

Which results are given for `Cc1nc2cc(Cl)ccc2c(=O)n1/N=C/c1ccc(O)cc1` [Compound 37]?
MIC (M. aurum; [1]): ≥ 62.5 µg/mL; MIC (M. avium; [2]): ≥ 62.5 µg/mL; MIC (Mtb H37Rv; [3]): > 50 µg/mL; MIC (M. kansasii): > 50 µg/mL; MIC (Mtb H37Ra; [4]): ≥ 62.5 µg/mL; MIC (M. smegmatis; [5]): ≥ 62.5 µg/mL

Which results are given for `NNC(=O)c1ccncc1` [INH, isoniazid, reference compound]?
MIC (M. aurum; Mycolicibacterium aurum, DSM43999; internal quality controls (standards); read-out: MINIMUM INHIBITORY CONCENTRATION Mycolicibacterium aurum DSM 43999): 1.95 to 3.91 µg/mL (≈ 14.2 to 28.5 µM); MIC (M. aurum; [10]): 3.91 µg/mL (≈ 28.5 µM); MIC (M. avium; Mycobacterium avium, DSM44156; internal quality controls (standards); read-out: MINIMUM INHIBITORY CONCENTRATION Mycobacterium avium DSM 44156): 500 to 1000 µg/mL (≈ 3650 to 7290 µM); MIC (M. avium; [6]): 1000 µg/mL (≈ 7290 µM); MIC (Mtb H37Rv; [3]): 0.2 µg/mL (≈ 1.46 µM); MIC (M. kansasii): 25 µg/mL (≈ 182 µM); MIC (Mtb H37Ra; Mycobacterium tuberculosis, H37RA; internal quality controls (standards); read-out: MINIMUM INHIBITORY CONCENTRATION Mycobacterium tuberculosis H37Ra): 0.125 to 0.25 µg/mL (≈ 0.911 to 1.82 µM); MIC (Mtb H37Ra; [4]): 0.25 µg/mL (≈ 1.82 µM); MIC (M. smegmatis; Mycolicibacterium smegmatis, DSM43465; internal quality controls (standards); read-out: MINIMUM INHIBITORY CONCENTRATION Mycolicibacterium smegmatis DSM 43465): 15.6 to 31.2 µg/mL (≈ 114 to 228 µM); MIC (M. smegmatis; [11]): 15.6 µg/mL (≈ 114 µM)

How did the MIC (M. aurum; [1]) turn out when `Cc1nc2cc(Cl)ccc2c(=O)n1/N=C/c1cccnc1` [Compound 30] was run?
Its MIC is no less than 31.2 µg/mL.

What about the MIC (M. avium; [2]) of the same compound?
Its MIC is no less than 31.2 µg/mL.

And the MIC (Mtb H37Rv; [3])?
The MIC was greater than 25 µg/mL.

And the MIC (M. kansasii)?
The MIC was greater than 25 µg/mL.

And the MIC (Mtb H37Ra; [4])?
Its MIC is no less than 31.2 µg/mL.

What about the MIC (M. smegmatis; [5]) of the same compound?
Its MIC is no less than 31.2 µg/mL.
